Data from the supplement of paper PMC11061612.

Key:
Experiment in all cases: Bliss excess, mean over the matrix (fraction); higher = more synergy
[1] = system: SW1710 (Bladder Carcinoma)
Outline: (§1)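 Cell lines grown in DMEM/F12 or RPMI with 10% FBS were plated in 1536-well plates and held 24 hours at 37°C, 5% CO2 before 72 hours of exposure to two-drug dose matrices, with DMSO typically at 0.2%. CellTiter-Glo 2.0 luminescence gave viability, which was converted to inhibition. Vehicle wells were set to 0 and blank wells to 1. Combination Emax is the second-highest inhibition in the matrix, and Bliss excess is the observed combination effect minus the expected EA + EB − EA·EB, where EA and EB are the single-agent effects.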

[2] = system: ESS-1 (Other Solid Carcinomas)
Outline: as §1

[3] = system: GAMG (Glioblastoma)
Outline: as §1

[4] = system: TGBC1TKB (Biliary Tract Carcinoma)
Outline: as §1

[5] = system: A673 (Ewing's Sarcoma)
Outline: as §1

[6] = system: MPP-89 (Mesothelioma)
Outline: as §1

[7] = system: OVCAR-5 (Ovarian Carcinoma)
Outline: as §1

[8] = system: EW-11 (Ewing's Sarcoma)
Outline: as §1

[9] = system: SNU-449 (Hepatocellular Carcinoma)
Outline: as §1

[10] = system: LCLC-97TM1 (Non-Small Cell Lung Carcinoma)
Outline: as §1

[11] = system: L-428 (Hodgkin's Lymphoma)
Outline: as §1

[12] = system: NCI-H1568 (Lung Adenocarcinoma)
Outline: as §1

[13] = system: Hs-746T (Gastric Carcinoma)
Outline: as §1

[14] = system: BPH-1 (Non-Cancerous)
Outline: as §1

[15] = system: NCI-H209 (Small Cell Lung Carcinoma)
Outline: as §1

[16] = system: BE2-M17 (Neuroblastoma)
Outline: as §1

[17] = system: SW1573 (Lung Adenocarcinoma)
Outline: as §1

[18] = system: HuH-7 (Hepatocellular Carcinoma)
Outline: as §1

[19] = system: ALL-PO (B-Lymphoblastic Leukemia)
Outline: as §1

[20] = system: NCI-H2722 (Mesothelioma)
Outline: as §1

Row | Compound | Bliss excess [1] | Bliss excess [2] | Bliss excess [3] | Bliss excess [4] | Bliss excess [5] | Bliss excess [6] | Bliss excess [7] | Bliss excess [8] | Bliss excess [9] | Bliss excess [10] | Bliss excess [11] | Bliss excess [12] | Bliss excess [13] | Bliss excess [14] | Bliss excess [15] | Bliss excess [16] | Bliss excess [17] | Bliss excess [18] | Bliss excess [19] | Bliss excess [20]
1 | CN(CCO)CC[C@H](CSc1ccccc1)Nc1ccc(S(=O)(=O)NC(=O)c2ccc(N3CCC([C@@H](O)c4ccccc4-c4ccc(Cl)cc4)CC3)cc2)cc1S(=O)(=O)C(F)(F)F [AZD4320] + CC(=O)O[C@H]1C(=O)[C@@]2(C)[C@H]([C@H](OC(=O)c3ccccc3)[C@]3(O)C[C@H](OC(=O)[C@H](O)[C@@H](NC(=O)c4ccccc4)c4ccccc4)C(C)=C1C3(C)C)[C@]1(OC(C)=O)CO[C@@H]1C[C@@H]2O [Paclitaxel] (first compound max 1 µM, 7x7, partner max 3 µM) | 0.141 | 0.0663 | 0.095 | 0.118 | 0.0654 | 0.108 | 0.0576 | 0.0303 | -0.0162 | – | – | – | – | – | – | – | – | – | – | –
2 | CN(CCO)CC[C@H](CSc1ccccc1)Nc1ccc(S(=O)(=O)NC(=O)c2ccc(N3CCC([C@@H](O)c4ccccc4-c4ccc(Cl)cc4)CC3)cc2)cc1S(=O)(=O)C(F)(F)F [AZD4320] + Cc1cc2ncnn2cc1Nc1ncc2c(n1)n(C1CCOCC1)c(=O)n2C [AZD7648] (first compound max 1 µM, 7x7, partner max 10 µM) | -0.058 | -0.0373 | -0.0633 | -0.0343 | 0.0069 | -0.0105 | -0.0452 | -0.0468 | -0.0811 | -0.0214 | -0.0021 | -0.0325 | -0.0371 | -0.0325 | 0.0477 | -0.0059 | -0.0592 | 0.004 | 0.0085 | -0.0695
3 | CN(CCO)CC[C@H](CSc1ccccc1)Nc1ccc(S(=O)(=O)NC(=O)c2ccc(N3CCC([C@@H](O)c4ccccc4-c4ccc(Cl)cc4)CC3)cc2)cc1S(=O)(=O)C(F)(F)F [AZD4320] + Nc1ccn([C@@H]2O[C@H](CO)[C@@H](O)C2(F)F)c(=O)n1 [Gemcitabine] (first compound max 1 µM, 7x7, partner max 0.3 µM) | -0.0401 | 0.0278 | 0.103 | -0.0139 | 0.0335 | 0.0268 | -0.0486 | 0.0215 | -0.0558 | – | – | – | – | – | – | – | – | – | – | –
4 | COc1nnc2ccc(N3CCC(c4ccc(OCCN5CCN(C)C(=O)[C@H]5C)cc4)CC3)nn12 [AZD5153] + CN(CC[C@H](CSC1=CC=CC=C1)NC2=C(C=C(C=C2)S(=O)(=O)NC(=O)C3=CC=C(C=C3)N4CCC(CC4)[C@H](C5=CC=CC=C5C6=CC=C(C=C6)Cl)O)S(=O)(=O)C(F)(F)F)CCO [AZD4320] (first compound max 1 µM, 7x7, partner max 1 µM) | – | – | – | – | – | – | – | – | – | -0.0034 | -0.0432 | -0.044 | 0.0125 | 0.0728 | 0.01 | 0.0682 | 0.089 | 0.11 | 0.0079 | 0.0387
5 | Cc1cc2ncnn2cc1Nc1ncc2c(n1)n(C1CCOCC1)c(=O)n2C [AZD7648] + C=CCn1c(=O)c2cnc(Nc3ccc(N4CCN(C)CC4)cc3)nc2n1-c1cccc(C(C)(C)O)n1 [AZD1775] (first compound max 10 µM, partner max 1 µM) | 0.0692 | 0.0525 | -0.005 | -0.0362 | -0.0306 | 0.0215 | -0.0038 | -0.029 | 0.0041 | 0.0234 | 0.0144 | -0.0763 | -0.0827 | 0.0321 | -0.0177 | -0.0837 | -0.0452 | 0.0039 | 0.0488 | 0.0033
6 | Cc1cc2ncnn2cc1Nc1ncc2c(n1)n(C1CCOCC1)c(=O)n2C [AZD7648] + CCN(CCO)CCCOc1ccc2c(Nc3cc(CC(=O)Nc4cccc(F)c4)[nH]n3)ncnc2c1 [AZD2811] (first compound max 10 µM, 7x7, partner max 1 µM) | 0.0167 | 0.128 | 0.0192 | 0.0111 | -0.0672 | 0.0023 | 0.043 | -0.0298 | 0.0117 | 0.0467 | 0.0783 | -0.0172 | -0.0291 | 0.0033 | 0.0054 | 0.01 | 0.0327 | -0.0065 | 0.0236 | 0.0323
7 | Cc1cc2ncnn2cc1Nc1ncc2c(n1)n(C1CCOCC1)c(=O)n2C [AZD7648] + CN(C)CCCOc1ccc(-c2ccc3ncc4c(c3c2)n(C2CCOCC2)c(=O)n4C)cn1 [AZD0156] (first compound max 10 µM, 7x7, partner max 1 µM) | -0.01 | 0.0364 | -0.058 | -0.027 | -0.0142 | 0.0139 | -0.0244 | -0.0549 | -0.0457 | -0.0042 | 0.069 | -0.0213 | -0.024 | 0.0049 | 0.048 | -0.0026 | -0.0114 | -0.006 | 0.0524 | -0.0023
8 | Cc1cc2ncnn2cc1Nc1ncc2c(n1)n(C1CCOCC1)c(=O)n2C [AZD7648] + C[C@@H]1COCCN1C2=NC(=NC(=C2)C3(CC3)[S@](=N)(=O)C)C4=C5C=CNC5=NC=C4 [AZD6738] (first compound max 10 µM, 7x7, partner max 10 µM) | 0.0067 | -0.0161 | 0.0064 | -0.002 | -0.0295 | -0.0034 | 0.0263 | 0.0104 | 0.0318 | 0.0376 | -0.0223 | 0.0383 | -0.0119 | -0.0251 | -0.0155 | -0.0073 | 0.0293 | 0.0151 | 0.0381 | -0.0163
9 | Cc1cc2ncnn2cc1Nc1ncc2c(n1)n(C1CCOCC1)c(=O)n2C [AZD7648] + O=C(c1cc(Cc2n[nH]c(=O)c3ccccc23)ccc1F)N1CCN(C(=O)C2CC2)CC1 [Olaparib] (first compound max 10 µM, 7x7, partner max 10 µM) | -0.0377 | -0.0721 | -0.0608 | -0.0649 | -0.015 | -0.0163 | -0.0349 | -0.0826 | -0.0525 | -0.0218 | -0.019 | -0.0307 | -0.0732 | 0.0337 | 0.0055 | 0.0754 | -0.0158 | -0.0389 | -0.0202 | -0.0445
10 | Cc1nc(Nc2ncc(C(=O)Nc3c(C)cccc3Cl)s2)cc(N2CCN(CCO)CC2)n1 [Dasatinib] + CC(=O)Nc1cccc(-n2c(=O)n(C3CC3)c(=O)c3c(Nc4ccc(I)cc4F)n(C)c(=O)c(C)c32)c1 [Trametinib] (first compound max 2 µM, 7x7, partner max 1 µM) | -0.0546 | -0.0417 | -0.018 | 0.123 | -0.075 | -0.0661 | 0.0217 | -0.0404 | -0.0631 | 0.0455 | -0.0494 | 0.118 | -0.0943 | -0.0801 | -0.039 | -0.0087 | -0.0715 | 0.0586 | 0.0238 | -0.0321
11 | COc1cc2ncnc(Nc3ccc(F)c(Cl)c3)c2cc1OCCCN1CCOCC1 [Gefitinib] + CC(C)n1c(=O)n(C)c2cnc3cc(F)c(-c4ccc(OCCCN5CCCCC5)nc4)cc3c21 [AZD1390] (first compound max 10 µM, 7x7, partner max 0.3 µM) | -0.041 | -0.0518 | -0.0443 | -0.0264 | -0.047 | -0.05 | -0.0846 | -0.0563 | -0.0529 | -0.0389 | -0.0645 | -0.0412 | -0.0759 | -0.0347 | -0.0831 | -0.049 | -0.0726 | -0.042 | -0.0558 | -0.0662
12 | COc1cc2c(cc1OCCCCCOc1cc3c(cc1OC)C(=O)N1C=C(C)C[C@H]1C=N3)N=C[C@@H]1CC(C)=CN1C2=O [SG3199] + O=C(c1cc(Cc2n[nH]c(=O)c3ccccc23)ccc1F)N1CCN(C(=O)C2CC2)CC1 [Olaparib] (first compound max 0.001 µM, 7x7, partner max 10 µM) | -0.0334 | -0.0118 | -0.0494 | -0.0438 | -0.0556 | -0.0391 | -0.0314 | -0.051 | -0.0647 | -0.0079 | -0.0207 | -0.077 | -0.0292 | 0.0391 | 0.0051 | 0.0474 | -0.0312 | -0.0363 | -0.0276 | -0.0459
13 | N#Cc1cnc(Nc2cc(NC[C@H]3CNCCO3)c(C(F)(F)F)cn2)cn1 [SRA737] + C=CCn1c(=O)c2cnc(Nc3ccc(N4CCN(C)CC4)cc3)nc2n1-c1cccc(C(C)(C)O)n1 [AZD1775] (first compound max 10 µM, partner max 1 µM) | 0.0292 | 0.12 | 0.0904 | -0.0128 | 0.0914 | 0.041 | 0.0274 | 0.0992 | 0.0354 | – | – | – | – | – | – | – | – | – | – | –
14 | N#Cc1cnc(Nc2cc(NC[C@H]3CNCCO3)c(C(F)(F)F)cn2)cn1 [SRA737] + CCc1c2c(nc3ccc(O)cc13)-c1cc3c(c(=O)n1C2)COC(=O)[C@]3(O)CC [SN-38] (first compound max 10 µM, 7x7, partner max 0.3 µM) | 0.0736 | -0.0091 | 0.0754 | 0.0008 | -0.0511 | 0.0191 | -0.0048 | -0.132 | 0.0341 | – | – | – | – | – | – | – | – | – | – | –
15 | N#Cc1cnc(Nc2cc(NC[C@H]3CNCCO3)c(C(F)(F)F)cn2)cn1 [SRA737] + Nc1ccn([C@@H]2O[C@H](CO)[C@@H](O)C2(F)F)c(=O)n1 [Gemcitabine] (first compound max 10 µM, 7x7, partner max 0.3 µM) | 0.164 | 0.0477 | 0.182 | 0.0401 | 0.0343 | 0.0014 | 0.0627 | -0.0557 | 0.0307 | – | – | – | – | – | – | – | – | – | – | –
16 | C[C@@H](c1ccc2nccn2c1)n1nnc2ncc(-c3cnn(C)c3)nc21 [Savolitinib] + CN(CC[C@H](CSC1=CC=CC=C1)NC2=C(C=C(C=C2)S(=O)(=O)NC(=O)C3=CC=C(C=C3)N4CCC(CC4)[C@H](C5=CC=CC=C5C6=CC=C(C=C6)Cl)O)S(=O)(=O)C(F)(F)F)CCO [AZD4320] (first compound max 1 µM, 7x7, partner max 1 µM) | – | – | – | – | – | – | – | – | – | -0.0311 | -0.0726 | -0.0571 | -0.0049 | -0.0802 | -0.0172 | -0.0337 | -0.0657 | -0.0064 | -0.0307 | -0.0433
